# Data reported in patent publication US7705004B2, “Protein kinase inhibitors” (Portola Pharmaceuticals, Inc., priority 2007, dated 2010).
# Test system: human washed platelets
# Assay: Inhibition of Convulxin-mediated platelet calcium mobilization in vitro
# Assay type: cell-based
# Conditions: 125 ng/mL Convulxin
# Method: Inhibition of Convulxin-induced calcium mobilization was determined in human washed platelets using the FLIPR Calcium 3 Assay Kit (Molecular Devices, Sunnyvale, Calif.). For preparation of washed platelets, human venous blood was collected from healthy, drug-free volunteers into ACD (85 mM sodium citrate, 111 mM glucose, 71.4 mM citric acid) containing PGI2 (1.25 mL ACD containing 0.2 μM PGI2 final; PGI2 from Sigma, St. Louis, Mo.). Platelet-rich plasma (PRP) was prepared by centrifugation at 160×g for 20 minutes at room temperature. Washed platelets were prepared by centrifuging PRP for 10 minutes at 730×g and resuspending the platelet pellet in CGS (13 mM sodium citrate, 30 mM glucose, 120 mM NaCl; 2 mL CGS/10 mL original blood volume). The wash in CGS was repeated a second time, the platelets were collected by centrifugation at 730 g for 10 minutes and resuspended at a concentration of 3×10^8 platelets/mL in Hepes-Tyrode's buffer (10 mM Hepes, 138 mM NaCl, 5.5 mM glucose, 2.9 mM KCl, 12 mM NaHCO3, pH 7.4). This platelet suspension was allowed to rest for 45 minutes at room temperature before use in calcium mobilization assays.
# For 96-well plate calcium-mobilization experiments, equal volumes of 3×10^8 washed platelets/mL were incubated with equal volumes of Calcium-3 Assay Reagent A resuspended in 1× Hank's Balanced Salt Solution, pH 7.4, 20 mM Hepes buffer. The total reaction volume of 0.2 mL/well included 1.5×10^8/mL washed platelet/Calcium-3 Assay reagent A mix, 10 μM Eptifibatide (Millennium Pharmaceuticals Inc, Cambridge, Mass.) and serial dilutions (1:3) of test compounds in 0.75% DMSO. DMSO alone was added to 1 well of each 8 set to allow for a maximal calcium-mobilization reading. After a 20 minute preincubation at room temperature, the 96-well microplate reader was loaded into the FlexStation (Molecular Devices, Sunnyvale, Calif.). The FlexStation experimental conditions for measuring calcium mobilization were set up using SOFTMax Pro. The settings used were as follows: Fluorescence parameters-assay mode: flex, excitation 485 nm, 525 nM with a cut-off of 515 nM; Parameters—PMT sensitivity-6, pipette height 230 μl, read time 2 minutes and 40 seconds, read intervals 2 seconds, temperature-23-25° C. After 18 seconds of baseline reading, calcium mobilization was initiated by the addition of Convulxin to a final concentration of 125 ng/mL. Inhibition of calcium mobilization was calculated as the maximum response observed in the presence of inhibitor, compared to that in the absence of inhibitor. IC50s were then derived by non-linear regression analysis.
row,SMILES,IC50 [µM]
1,"c1cc2c(Nc3ccc4cn[nH]c4c3)nc(Nc3ccc(N4CCNCC4)cc3)nc2[nH]1 [Compound 1-2, N4-(1H-indazol-6-yl)-N2-(4-(piperazin-1-yl)phenyl)-7H-pyrrolo[2,3-d]pyrimidine-2,4-diamine]",< 1
2,"Cc1n[nH]c2cc(Nc3nc(Nc4ccc(N5CCNCC5)cc4)nc4[nH]ccc34)ccc12 [Compound 2-2, N4-(3-methyl-1H-indazol-6-yl)-N2-(4-(piperazin-1-yl)phenyl)-7H-pyrrolo[2,3-d]pyrimidine-2,4-diamine]",< 1
3,CC1(C)Oc2ccc(Nc3nc(Nc4ccc5c(c4)NC(=O)C(C)(C)O5)c4cc[nH]c4n3)cc2NC1=O [Compound 3-1],< 1
4,"c1cc2c(Nc3ccc4cn[nH]c4c3)nc(Nc3ccc4cn[nH]c4c3)nc2[nH]1 [Compound 4-1, N2,N4-di(1H-indazol-6-yl)-7H-pyrrolo[2,3-d]pyrimidine-2,4-diamine]",< 1
5,"CS(=O)(=O)N1CCN(c2ccc(Nc3nc(Nc4ccc5cn[nH]c5c4)c4cc[nH]c4n3)cc2)CC1 [Compound 8-1, N4-(1H-indazol-6-yl)-N2-(4-(4-(methylsulfonyl)piperazin-1-yl)phenyl)-7H-pyrrolo[2,3-d]pyrimidine-2,4-diamine]",< 1
6,"CS(=O)(=O)N1CCN(c2ccc(Nc3nc(Nc4ccc5cnn(S(C)(=O)=O)c5c4)c4cc[nH]c4n3)cc2)CC1 [Compound 8-2, N4-(1-(methylsulfonyl)-1H-indazol-6-yl)-N2-(4-(4-(methylsulfonyl)piperazin-1-yl)phenyl)-7H-pyrrolo[2,3-d]pyrimidine-2,4-diamine]",< 1
7,"CS(=O)(=O)c1ccc(Nc2nc(Nc3ccc4cn[nH]c4c3)c3cc[nH]c3n2)cc1 [Compound 9-1, N4-(1H-indazol-6-yl)-N2-(4-(methylsulfonyl)phenyl)-7H-pyrrolo[2,3-d]pyrimidine-2,4-diamine]",< 1
8,"CC1(C)Oc2ccc(Nc3nc(Nc4ccc5cn[nH]c5c4)nc4[nH]ccc34)cc2NC1=O [Compound 16-1, 6-(2-(1H-indazol-6-ylamino)-7H-pyrrolo[2,3-d]pyrimidin-4-ylamino)-2,2-dimethyl-2H-benzo[b][1,4]oxazin-3(4H)-one]",< 1

# Test system: human platelet-rich plasma (PRP)
# Assay: Convulxin-induced aggregation assay (cuvette light transmittance)
# Assay type: cell-based
# Conditions: 125-250 ng/mL Convulxin, read-out: IC50, inhibition of convulxin-induced aggregation of platelet rich plasma
# Method: For preparation of human platelet-rich plasma (PRP) for aggregation assays, human venous blood was collected from healthy, drug-free volunteers into 0.38% sodium citrate (0.013 M, pH 7.0 final). PRP was prepared by centrifugation of whole blood at 160×g for 20 minutes at room temperature. The PRP layer was removed, transferred to a new tube, and the platelet count was adjusted, if necessary, to achieve a platelet concentration of ˜3×10^8 platelets/mL using platelet-poor plasma (PPP). PPP was prepared by centrifugation of the remaining blood sample (after removal of PRP) for 20 minutes at 800×g. This preparation of PRP may be subsequently used for aggregation assays in either a 96-well plate or standard cuvette aggregometry.
# Inhibition of Convulxin-induced aggregation was determined by cuvette light transmittance aggregation assays. Serial dilutions (1:2) of test compounds were prepared in 30% DMSO in a 96-well V-bottom plate (final DMSO concentration in the cuvette was 0.3%). The test compound (5 μl of serial dilutions in DMSO) was preincubated with PRP for 20 minutes prior to initiation of the aggregation reactions, which were performed in a ChronoLog aggregometer by addition of agonist (125-250 ng/mL Convulxin) to 495 μL of PRP at 37° C. The aggregation reaction was recorded for 4 minutes, and the maximum extent of aggregation was determined by the difference in extent of aggregation at baseline, compared to the maximum aggregation that occurred during the 4 minute period of the assay. Inhibition of aggregation was calculated as the maximum aggregation observed in the presence of inhibitor, compared to that in the absence of inhibitor. IC50s were derived by non-linear regression analysis.
row,SMILES,IC50 [µM]
1,"c1cc2c(Nc3ccc4cn[nH]c4c3)nc(Nc3ccc(N4CCNCC4)cc3)nc2[nH]1 [Compound 1-2, N4-(1H-indazol-6-yl)-N2-(4-(piperazin-1-yl)phenyl)-7H-pyrrolo[2,3-d]pyrimidine-2,4-diamine]",≤ 50
2,"CC(=O)N1CCN(c2ccc(Nc3nc(Nc4ccc5c(C)n[nH]c5c4)c4cc[nH]c4n3)cc2)CC1 [Compound 2-1, 1-(4-(4-(4-(3-methyl-1H-indazol-6-ylamino)-7H-pyrrolo[2,3-d]pyrimidin-2-ylamino)phenyl)piperazin-1-yl)ethanone]",≤ 50
3,"Cc1n[nH]c2cc(Nc3nc(Nc4ccc(N5CCNCC5)cc4)nc4[nH]ccc34)ccc12 [Compound 2-2, N4-(3-methyl-1H-indazol-6-yl)-N2-(4-(piperazin-1-yl)phenyl)-7H-pyrrolo[2,3-d]pyrimidine-2,4-diamine]",≤ 50
4,"CC(=O)N(C)c1ccc(Nc2nc(Nc3ccc4cn[nH]c4c3)c3cc[nH]c3n2)cc1 [Compound 6-1, N-(4-(4-(1H-indazol-6-ylamino)-7H-pyrrolo[2,3-d]pyrimidin-2-ylamino)phenyl)-N-methylacetamide]",≤ 50
5,"OC1CCN(c2ccc(Nc3nc(Nc4ccc5cn[nH]c5c4)c4cc[nH]c4n3)cc2)CC1 [Compound 7-1, 1-(4-(4-(1H-indazol-6-ylamino)-7H-pyrrolo[2,3-d]pyrimidin-2-ylamino)phenyl)piperidin-4-ol]",≤ 50
6,"CS(=O)(=O)N1CCN(c2ccc(Nc3nc(Nc4ccc5cn[nH]c5c4)c4cc[nH]c4n3)cc2)CC1 [Compound 8-1, N4-(1H-indazol-6-yl)-N2-(4-(4-(methylsulfonyl)piperazin-1-yl)phenyl)-7H-pyrrolo[2,3-d]pyrimidine-2,4-diamine]",≤ 50
7,"CS(=O)(=O)N1CCN(c2ccc(Nc3nc(Nc4ccc5cnn(S(C)(=O)=O)c5c4)c4cc[nH]c4n3)cc2)CC1 [Compound 8-2, N4-(1-(methylsulfonyl)-1H-indazol-6-yl)-N2-(4-(4-(methylsulfonyl)piperazin-1-yl)phenyl)-7H-pyrrolo[2,3-d]pyrimidine-2,4-diamine]",≤ 50
8,"CS(=O)(=O)c1ccc(Nc2nc(Nc3ccc4cn[nH]c4c3)c3cc[nH]c3n2)cc1 [Compound 9-1, N4-(1H-indazol-6-yl)-N2-(4-(methylsulfonyl)phenyl)-7H-pyrrolo[2,3-d]pyrimidine-2,4-diamine]",≤ 50
9,"CSc1ccc(Nc2nc(Nc3ccc4cn[nH]c4c3)c3cc[nH]c3n2)cc1 [Compound 10-1, N4-(1H-indazol-6-yl)-N2-(4-(methylthio)phenyl)-7H-pyrrolo[2,3-d]pyrimidine-2,4-diamine]",≤ 50
10,"C[S+]([O-])c1ccc(Nc2nc(Nc3ccc4cn[nH]c4c3)c3cc[nH]c3n2)cc1 (stereo not drawn) [Compound 10-2, N4-(1H-indazol-6-yl)-N2-(4-(methylsulfinyl)phenyl)-7H-pyrrolo[2,3-d]pyrimidine-2,4-diamine]",≤ 50
11,"NS(=O)(=O)c1ccc(Nc2nc(Nc3ccc4cn[nH]c4c3)c3cc[nH]c3n2)cc1 [Compound 11-1, 4-(4-(1H-indazol-6-ylamino)-7H-pyrrolo[2,3-d]pyrimidin-2-ylamino)benzenesulfonamide]",≤ 50
12,"NC(=O)c1ccc(Nc2nc(Nc3ccc4cn[nH]c4c3)c3cc[nH]c3n2)cc1 [Compound 12-1, 4-(4-(1H-indazol-6-ylamino)-7H-pyrrolo[2,3-d]pyrimidin-2-ylamino)benzamide]",≤ 50
13,"CN1CCN(c2ccc(Nc3nc(Nc4ccc5cn[nH]c5c4)c4cc[nH]c4n3)cc2)CC1 [Compound 13-1, N4-(1H-indazol-6-yl)-N2-(4-(4-methylpiperazin-1-yl)phenyl)-7H-pyrrolo[2,3-d]pyrimidine-2,4-diamine]",≤ 50
14,"CC(=O)N1CCN(c2ccc(Nc3nc(Nc4ccc5[nH]ncc5c4)c4cc[nH]c4n3)cc2)CC1 [Compound 14-1, 1-(4-(4-(4-(1H-indazol-5-ylamino)-7H-pyrrolo[2,3-d]pyrimidin-2-ylamino)phenyl)piperazin-1-yl)ethanone]",≤ 50
15,"CC(=O)N1CCN(c2ccc(Nc3nc(Nc4ccc5cn[nH]c5c4)c4c(C)c[nH]c4n3)cc2)CC1 [Compound 15-1, 1-(4-(4-(4-(1H-indazol-6-ylamino)-5-methyl-7H-pyrrolo[2,3-d]pyrimidin-2-ylamino)phenyl)piperazin-1-yl)ethanone]",≤ 50
16,"CC(=O)N(C)c1ccc(Nc2nc(Nc3ccc4nc[nH]c4c3)c3cc[nH]c3n2)cc1 [Compound 17-1, N-(4-(4-(1H-benzo[D]imidazol-6-ylamino)-7H-pyrrolo[2,3-d]pyrimidin-2-ylamino)phenyl)-N-methylacetamide]",≤ 50
17,"CN(C)C(=O)C1CCN(c2ccc(Nc3nc(Nc4ccc5nc[nH]c5c4)c4cc[nH]c4n3)cc2)CC1 [Compound 18-1, 1-(4-(4-(1H-benzo[d]imidazol-6-ylamino)-7H-pyrrolo[2,3-d]pyrimidin-2-ylamino)phenyl)-N,N-dimethylpiperidine-4-carboxamide]",≤ 50
18,"c1cc2c(Nc3ccc4scnc4c3)nc(Nc3ccc4cn[nH]c4c3)nc2[nH]1 [Compound 19-1, N4-(benzo[d]thiazol-5-yl)-N2-(1H-indazol-6-yl)-7H-pyrrolo[2,3-d]pyrimidine-2,4-diamine]",≤ 50
19,"c1cc2c(Nc3ccc4ncsc4c3)nc(Nc3ccc4cn[nH]c4c3)nc2[nH]1 [Compound 20-1, N4-(benzo[d]thiazol-6-yl)-N2-(1H-indazol-6-yl)-7H-pyrrolo[2,3-d]pyrimidine-2,4-diamine]",≤ 50
20,"Cn1ncc2ccc(Nc3nc(Nc4ccc(N5CCNCC5)cc4)nc4[nH]ccc34)cc21 [Compound 22-1, N4-(1-methyl-1H-indazol-6-yl)-N2-(4-(piperazin-1-yl)phenyl)-7H-pyrrolo[2,3-d]pyrimidine-2,4-diamine]",≤ 50
21,"CC(=O)N1CCN(c2ccc(Nc3nc(Nc4ccc5cnn(C)c5c4)c4cc[nH]c4n3)cc2)CC1 [Compound 22-2, 1-(4-(4-(4-(1-methyl-1H-indazol-6-ylamino)-7H-pyrrolo[2,3-d]pyrimidin-2-ylamino)phenyl)piperazin-1-yl)ethanone]",≤ 50
22,"Cn1ncc2cc(Nc3nc(Nc4ccc(C(N)=O)cc4)nc4[nH]ccc34)ccc21 [Compound 25-1, 4-(4-(1-methyl-1H-indazol-5-ylamino)-7H-pyrrolo[2,3-d]pyrimidin-2-ylamino)benzamide]",≤ 50
